Reference: patent publication US20260226073A1 (AURIGENE ONCOLOGY LIMITED, priority 2023, published 2026)

Assays:
[1] = tested on: NFAT signaling pathway in Jurkat NFAT reporter cells; assay: Jurkat NFAT reporter assay; assay type: cell-based; conditions: Homo sapiens, 30 min with compound, then soluble anti-human CD3/CD28 antibody for 6 hours, luciferase readout, read-out: EC50 (Group)
Summary of the method: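 Jurkat cells bearing an NFAT-RE-driven luciferase reporter (1×10^5 per well) preincubated with Cbl-b inhibitor for 30 min, then stimulated 6 h with soluble anti-CD3/CD28. Luminescence read with Bio-Glo; values are fold change over anti-CD3/CD28-stimulated cells without inhibitor.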

[2] = target: T1, human recombinant CBL-b (human Biotin CBL-b recombinant protein a.a. 39-426) (Homo sapiens, UniProt Q13191); assay: Biochemical assay for CBL-b inhibition (ligand displacement TR-FRET); assay type: binding; conditions: 50 nM CBL-b, 0.3 μM Bodipy FL-Probe, read-out: IC50 (CBL-b inhibition, group)
T1 construct: human Biotin CBL-b recombinant protein a.a; 39-426; Biotin (biotinylated); made in house
T1 sequence (Q13191 39-426): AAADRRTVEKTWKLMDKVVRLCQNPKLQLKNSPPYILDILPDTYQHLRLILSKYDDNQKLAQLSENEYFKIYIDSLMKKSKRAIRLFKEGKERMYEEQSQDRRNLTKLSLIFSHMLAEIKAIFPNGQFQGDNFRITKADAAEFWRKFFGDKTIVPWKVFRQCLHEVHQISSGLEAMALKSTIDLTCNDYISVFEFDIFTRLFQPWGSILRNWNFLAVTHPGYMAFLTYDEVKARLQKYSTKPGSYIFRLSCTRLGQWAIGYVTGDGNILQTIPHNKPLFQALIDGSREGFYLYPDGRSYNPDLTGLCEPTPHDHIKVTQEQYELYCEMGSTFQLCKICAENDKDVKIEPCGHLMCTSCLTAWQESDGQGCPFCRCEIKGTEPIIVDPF
Summary of the method: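 Biotinylated CBL-b (a.a. 39-426, 50 nM final) pre-incubated with compound 60 min at RT in HEPES/NaCl/Triton/BSA/TCEP buffer, then Bodipy FL probe (0.3 μM final) 60 min, then terbium-streptavidin 60 min. TR-FRET read at 665/615 nm; IC50 and % max inhibition from sigmoidal fits.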

SMILES | EC50 [1] | IC50 [2]
C[C@H]1CCN(Cc2cc(Cl)nc(N3Cc4ccc(C5(Cc6nncn6C)COC5)cc4C3=O)c2)C1 [Compound 67, (S)-2-(6-Chloro-4-((3-methylpyrrolidin-1-yl)methyl)pyridin-2-yl)-6-(3-((4-methyl-4H-1,2,4-triazol-3-yl)methyl)oxetan-3-yl)isoindolin-1-one] | 300 to 1000 nM | 80 to 300 nM
Cn1cnnc1CC1(c2ccc3c(c2)C(=O)N(c2cc(CNC4CC(F)(F)C4)cc(C(F)(F)F)n2)C3)COC1 [Compound 74, 2-(4-(((3,3-Difluorocyclobutyl)amino)methyl)-6-(trifluoromethyl)pyridin-2-yl)-6-(3-((4-methyl-4H-1,2,4-triazol-3-yl)methyl)oxetan-3-yl)isoindolin-1-one] | 1000 to 10000 nM | 80 to 300 nM
C[C@@H]1C[C@H](C)CN(Cc2cc(N3Cc4ccc(C5(Cc6nncn6C)CCC5)cc4C3=O)nc(C(F)(F)F)c2)C1 [Compound 82, 2-(4-(((3S,5R)-3,5-Dimethylpiperidin-1-yl)methyl)-6-(trifluoromethyl)pyridin-2-yl)-6-(1-((4-methyl-4H-1,2,4-triazol-3-yl)methyl)cyclobutyl)isoindolin-1-one] | < 300 nM | < 80 nM
CC(Cc1nncn1C)c1ccc2c(c1)C(=O)N(c1cc(CN3CCC[C@H](C)C3)cc(Cl)n1)C2 (stereo partly drawn) [Compound 83, 2-(6-Chloro-4-(((S)-3-methylpiperidin-1-yl)methyl)pyridin-2-yl)-6-(1-(4-methyl-4H-1,2,4-triazol-3-yl)propan-2-yl)isoindolin-1-one] | < 300 nM | < 80 nM
CC(Cc1nncn1C)c1ccc2c(c1)C(=O)N(c1cc(CN3C[C@H](C)C[C@H](C)C3)cc(Cl)n1)C2 (stereo partly drawn) [Compound 84, 2-(6-Chloro-4-(((3S,5R)-3,5-dimethylpiperidin-1-yl)methyl)pyridin-2-yl)-6-(1-(4-methyl-4H-1,2,4-triazol-3-yl)propan-2-yl)isoindolin-1-one] | 300 to 1000 nM | 80 to 300 nM
C[C@H]1CCCN(Cc2cc(Cl)nc(N3Cc4ccc(C5(Cc6nncn6C)CC(C#N)C5)cc4C3=O)c2)C1 (some centres unmarked) [Compound 85] | < 300 nM | < 80 nM
C[C@H]1CCCN(Cc2cc(Cl)nc(N3Cc4ccc(C5(Cc6nncn6C)CCC5)cc4C3=O)c2)C1 [Compound 89, (S)-2-(6-Chloro-4-((3-methylpiperidin-1-yl)methyl)pyridin-2-yl)-6-(1-((4-methyl-4H-1,2,4-triazol-3-yl)methyl)cyclobutyl)isoindolin-1-one] | < 300 nM | < 80 nM
C[C@H]1CCCN(Cc2cc(N3Cc4ccc(C5(Cc6nncn6C)COC5)cc4C3=O)cc3occc23)C1 [Compound 94, (S)-6-(3-((4-Methyl-4H-1,2,4-triazol-3-yl)methyl)oxetan-3-yl)-2-(4-((3-methyl-piperidin-1-yl)methyl)benzofuran-6-yl)isoindolin-1-one] | 300 to 1000 nM | < 80 nM
Cc1cc(CNCC2CC2)cc(N2Cc3ccc(-c4ccc(Cl)cc4-c4nncn4C)cc3C2=O)n1 [Compound 101, 6-(4-Chloro-2-(4-methyl-4H-1,2,4-triazol-3-yl)phenyl)-2-(4-(((cyclopropylmethyl)amino)methyl)-6-methylpyridin-2-yl)isoindolin-1-one] | < 300 nM | < 80 nM
Cn1cnnc1-c1cc(Cl)ccc1-c1ccc2c(c1)C(=O)N(c1cc(CNCC3CC3)cc(Cl)n1)C2 [Compound 102, 6-(4-Chloro-2-(4-methyl-4H-1,2,4-triazol-3-yl)phenyl)-2-(6-chloro-4-(((cyclopropylmethyl)amino)methyl)pyridin-2-yl)isoindolin-1-one] | < 300 nM | < 80 nM
Cn1cnnc1-c1cc(Cl)ccc1-c1ccc2c(c1)C(=O)N(c1cc(CNC3CCCC3)cc(Cl)n1)C2 [Compound 106, 6-(4-Chloro-2-(4-methyl-4H-1,2,4-triazol-3-yl)phenyl)-2-(6-chloro-4-((cyclo-pentylamino)methyl)pyridin-2-yl)isoindolin-1-one] | 300 to 1000 nM | 80 to 300 nM
C[C@H]1CCCN(Cc2cc(Cl)nc(N3Cc4ccc(-c5ccc(C#N)cc5-c5nncn5C)cc4C3=O)c2)C1 [Compound 112, (S)-4-(2-(6-Chloro-4-((3-methylpiperidin-1-yl)methyl)pyridin-2-yl)-3-oxoiso-indolin-5-yl)-3-(4-methyl-4H-1,2,4-triazol-3-yl)benzonitrile] | < 300 nM | < 80 nM
C[C@H]1CCCN(Cc2cc(Cl)nc(N3Cc4ccc(-c5ccc(Cl)cc5-c5nncn5C)cc4C3=O)c2)C1 [Compound 113, (S)-6-(4-Chloro-2-(4-methyl-4H-1,2,4-triazol-3-yl)phenyl)-2-(6-chloro-4-((3-methylpiperidin-1-yl)methyl)pyridin-2-yl)isoindolin-1-one] | < 300 nM | < 80 nM
Cn1cnnc1-c1ccccc1-c1ccc2c(c1)C(=O)N(c1cc(CNCCC(F)(F)F)cc(Cl)n1)C2 [Compound 116, 2-(6-Chloro-4-(((3,3,3-trifluoropropyl)amino)methyl)pyridin-2-yl)-6-(2-(4-methyl-4H-1,2,4-triazol-3-yl)phenyl)isoindolin-1-one] | 1000 to 10000 nM | < 80 nM
Cn1cnnc1-c1cc(Cl)ccc1-c1ccc2c(c1)C(=O)N(c1cc(Cl)cc(CNCC3CC3)c1)C2 [Compound 119, 6-(4-Chloro-2-(4-methyl-4H-1,2,4-triazol-3-yl)phenyl)-2-(3-chloro-5-(((cyclo-propylmethyl)amino)methyl)phenyl)isoindolin-1-one] | 300 to 1000 nM | < 80 nM
CC(NCC1CC(F)(F)C1)c1cc(Cl)nc(N2Cc3ccc(-c4ccc(Cl)cc4-c4nncn4C)cc3C2=O)c1 (centres unmarked) [Compound 121, 6-(4-Chloro-2-(4-methyl-4H-1,2,4-triazol-3-yl)phenyl)-2-(6-chloro-4-(1-(((3,3-difluorocyclobutyl)methyl)amino)ethyl)pyridin-2-yl)isoindolin-1-one] | < 300 nM | < 80 nM

Now from value to compound:

EC50 [1] | IC50 [2] | SMILES
< 300 nM | < 80 nM | Cn1cnnc1CC1(c2ccc3c(c2)C(=O)N(c2cc(CNCCC(F)(F)F)cc(Cl)n2)C3)COC1 [Compound 66, 2-(6-Chloro-4-(((3,3,3-trifluoropropyl)amino)methyl)pyridin-2-yl)-6-(3-((4-methyl-4H-1,2,4-triazol-3-yl)methyl)oxetan-3-yl)isoindolin-1-one]
300 to 1000 nM | 80 to 300 nM | C[C@@H]1CCN(Cc2cc(Cl)nc(N3Cc4ccc(C5(Cc6nncn6C)COC5)cc4C3=O)c2)C1 [Compound 68, (R)-2-(6-Chloro-4-((3-methylpyrrolidin-1-yl)methyl)pyridin-2-yl)-6-(3-((4-methyl-4H-1,2,4-triazol-3-yl)methyl)oxetan-3-yl)isoindolin-1-one]
1000 to 10000 nM | 300 to 5000 nM | Cn1cnnc1CC1(c2ccc3c(c2)C(=O)N(c2cc(CN4CC5CC5C4)cc(C(F)(F)F)n2)C3)COC1 (centres unmarked) [Compound 71, 2-(4-((3-Azabicyclo[3.1.0]hexan-3-yl)methyl)-6-(trifluoromethyl)pyridin-2-yl)-6-(3-((4-methyl-4H-1,2,4-triazol-3-yl)methyl)oxetan-3-yl)isoindolin-1-one]
1000 to 10000 nM | 80 to 300 nM | C[C@H]1CCCN(Cc2cc(C3CC3)nc(N3Cc4ccc(C5(Cc6nncn6C)COC5)cc4C3=O)c2)C1 [Compound 73, (S)-2-(6-Cyclopropyl-4-((3-methylpiperidin-1-yl)methyl)pyridin-2-yl)-6-(3-((4-methyl-4H-1,2,4-triazol-3-yl)methyl)oxetan-3-yl)isoindolin-1-one]
300 to 1000 nM | 300 to 5000 nM | Cn1cnnc1CC1(c2ccc3c(c2)C(=O)N(c2cc(CNC4(C)CCC4)cc(C(F)(F)F)n2)C3)COC1 [Compound 88, 6-(3-((4-Methyl-4H-1,2,4-triazol-3-yl)methyl)oxetan-3-yl)-2-(4-(((1-methyl-cyclobutyl)amino)methyl)-6-(trifluoromethyl)pyridin-2-yl)isoindolin-1-one]
1000 to 10000 nM | 300 to 5000 nM | Cn1cnnc1CC1(c2ccc3c(c2)C(=O)N(c2cc(CN4CCCc5c4cnn5C)cc(C(F)(F)F)n2)C3)COC1 [Compound 92, 2-(4-((1-Methyl-1,5,6,7-tetrahydro-4H-pyrazolo[4,3-b]pyridin-4-yl)methyl)-6-(trifluoromethyl)pyridin-2-yl)-6-(3-((4-methyl-4H-1,2,4-triazol-3-yl)methyl)oxetan-3-yl)isoindolin-1-one]
< 300 nM | < 80 nM | Cc1cc(C(C)NCC2CC2)cc(N2Cc3ccc(-c4ccc(Cl)cc4-c4nncn4C)cc3C2=O)n1 (centres unmarked) [Compound 103, 6-(4-Chloro-2-(4-methyl-4H-1,2,4-triazol-3-yl)phenyl)-2-(4-(1-((cyclopropylmethyl)amino)ethyl)-6-methylpyridin-2-yl)isoindolin-1-one]
< 300 nM | < 80 nM | CC(NCC1CCC1)c1cc(Cl)nc(N2Cc3ccc(-c4ccc(Cl)cc4-c4nncn4C)cc3C2=O)c1 (centres unmarked) [Compound 107, 6-(4-Chloro-2-(4-methyl-4H-1,2,4-triazol-3-yl)phenyl)-2-(6-chloro-4-(1-((cyclo-butylmethyl)amino)ethyl)pyridin-2-yl)isoindolin-1-one]
1000 to 10000 nM | 80 to 300 nM | C[C@@H]1C[C@H](C)CN(Cc2cc(N3Cc4ccc(-c5ccccc5-c5nncn5C)cc4C3=O)nc(C(F)(F)F)c2)C1 [Compound 117, 2-(4-(((3S,5R)-3,5-Dimethylpiperidin-1-yl)methyl)-6-(trifluoromethyl)pyridin-2-yl)-6-(2-(4-methyl-4H-1,2,4-triazol-3-yl)phenyl)isoindolin-1-one]
